Measured values from patent US8993565B2, “(6-oxo-1,6-dihydropyrimidin-2-yl)amide derivatives, preparation thereof and pharmaceutical use thereof as AKT(PKB) phosphorylation inhibitors” (Sanofi, priority 2009, dated 2015).

System: AKT protein phosphorylated on serine 473 (P-AKT-S473)
Experiment: Study of pAKT expression in PC3 human prostate carcinoma cells measured by the MSD Multi-spot Biomarker Detection technique (Test B)
Assay type: cell-based
Conditions: PC-3, inhibition of AKT phosphorylation (P-AKT-S473), MSD sandwich immunoassay, 1 to 2 h incubation, absolute IC50, mean of 2 experiments
Method: The inhibitory activity of the molecules on AKT phosphorylation is measured either by western blotting using the technique described below, or by the MSD Multi-spot Biomarker detection technique from Meso Scale Discovery also described below.
Study of pAKT Expression in PC3 Human Prostate Carcinoma Cells Measured by the MSD Multi-Spot Biomarker Detection Technique from Meso Scale Discovery (Test B):
The primary antibody specific for P-AKT-S473 (Kit #K151CAD) is coated on to an electrode in each well of the 96-well plates of the MSD, kit: after the addition of a protein lysate to each well, the signal is visualised by adding a secondary detection antibody labelled with an electrochemoluminescent compound. The procedure followed is that described in the kit.
On day 2, the cells are incubated in the presence or absence of the test products for 1 to 2 h at 37° C. in the presence of 5% of CO2. The molecules, diluted in dimethyl sulphoxide (DMSO Sigma #D2650), are added from a 20-times concentrated stock solution, the final percentage of DMSO being 0.1%. The molecules are tested either at a single concentration of less than or equal to 10 μM, or at increasing concentrations in a range that can extend from less than 1 nM to 10 μM.
After this incubation, the cells are lysed for the preparation of the proteins. […] At this stage, the plates containing the lysates can be stored at −20° C. or at −80° C.
The wells of the 96-well plates of the MSD kit are saturated for 1 h at ambient temperature with the blocking solution of the MSD kit. Four washes are carried out with 150 μl of Tris Wash Buffer of the MSD kit. The lysates previously prepared are transferred into the 96-well multi-spot plates of the MSD kit and incubated for 1 h at ambient temperature, with shaking. Four washes are carried out with 150 μl of Tris Wash Buffer of the MSD kit. 25 μl of the MSD sulfo-tag detection antibody solution are added to the wells and incubated for 1 h at ambient temperature, with shaking. Four washes are carried out with 150 μl of Tris Wash Buffer of the MSD kit. 150 μl of Read Buffer of the MSD kit are added to the wells and the plates are read immediately on the S12400 instrument from Meso Scale Discovery.
The instrument measures a signal for each well. Wells without cells and containing the lysis buffer serve to determine the background noise that will be subtracted from all the measurements (min). The wells containing cells in the absence of product and in the presence of 0.1% DMSO are considered to be the 100% signal (max). The percentage inhibition is calculated for each concentration of test product according to the following formula: (1-((test-min)(max-min)))×100.
2 independent experiments make it possible to calculate the mean of the IC50 values.

`O=C(Cc1nc(N2CCOCC2)cc(=O)[nH]1)Nc1ccc(F)cn1` [Example 27, N-(5-fluoropyridin-2-yl)-2-[4-(morpholin-4-yl)-6-oxo-1,6-dihydropyrimidin-2-yl]acetamide] and `Cc1cc(F)ccc1NC(=O)Cc1nc(N2CCOCC2)cc(=O)[nH]1` [Example 31, N-(4-fluoro-2-methylphenyl)-2-[4-(morpholin-4-yl)-6-oxo-1,6-dihydropyrimidin-2-yl]acetamide] are within 1.5-fold of each other in IC50: 71 nM for the first, 58 nM for the second.

First: C[C@H]1Cc2ccccc2N1C(=O)Cc1nc(N2CCOCC2)cc(=O)[nH]1 [Example 117, 2-{2-[(2S)-2-methyl-2,3-dihydro-1H-indol-1-yl]-2-oxoethyl}-6-(morpholin-4-yl)pyrimidin-4(3 H)-one]
Second: NC(=O)C1Cc2ccccc2N1C(=O)Cc1nc(N2CCOCC2)cc(=O)[nH]1 (centres unmarked) [Example 122, 1-{[4-(morpholin-4-yl)-6-oxo-1,6-dihydropyrimidin-2-yl]acetyl}-2,3-dihydro-1H-indole-2-carboxamide]
The IC50 of the first is 26-fold lower: 19 nM for the first, 503 nM for the second. The first is the more potent here.

First: O=C(Cc1nc(N2CCOCC2)cc(=O)[nH]1)N1CCc2c(F)cc(F)cc21 [Example 92, 2-[2-(4,6-difluoro-2,3-dihydro-1H-indol-1-yl)-2-oxoethyl]-6-(morpholin-4-yl)pyrimidin-4(3H)-one]
Second: Cc1cccc2c1CCN2C(=O)Cc1nc(N2CCOCC2)cc(=O)[nH]1 [Example 100, 2-[2-(4-methyl-2,3-dihydro-1H-indol-1-yl)-2-oxoethyl]-6-(morpholin-4-yl)pyrimidin-4(3H)-one]
The IC50 of the first is 19-fold higher: 57 nM for the first, 3 nM for the second. The second is the more potent here.

Going from `COCCOc1cc(F)ccc1NC(=O)Cc1nc(N2CCOCC2)cc(=O)[nH]1` [Example 138, N-[4-fluoro-2-(2-methoxyethoxy)phenyl]-2-[4-(morpholin-4-yl)-6-oxo-1,6-dihydropyrimidin-2-yl]acetamide] to `O=C(Cc1nc(N2CCOCC2)cc(=O)[nH]1)Nc1ccc(F)cc1Br` [Example 66, N-(2-bromo-4-fluorophenyl)-2-[4-(morpholin-4-yl)-6-oxo-1,6-dihydropyrimidin-2-yl]acetamide], the IC50 rises from 35 nM to 131 nM (3.7-fold). The first is the more potent here.

Compared with `Cn1c(CC(=O)Nc2ccc(F)c(CO)c2)nc(N2CCOCC2)cc1=O` [Example 81, N-[4-fluoro-3-(hydroxymethyl)phenyl]-2-[1-methyl-4-(morpholin-4-yl)-6-oxo-1,6-dihydropyrimidin-2-yl]acetamide], `Cn1c(CC(=O)Nc2ccc(F)c(Br)c2)nc(N2CCOCC2)cc1=O` [Example 80, N-(3-bromo-4-fluorophenyl)-2-[1-methyl-4-(morpholin-4-yl)-6-oxo-1,6-dihydropyrimidin-2-yl]acetamide] is 21-fold lower in IC50: 1940 nM for the first, 94 nM for the second.

First: O=C(Cc1nc(N2CCOCC2)cc(=O)[nH]1)Nc1cccc(F)c1O [Example 87, N-(3-fluoro-2-hydroxyphenyl)-2-[4-(morpholin-4-yl)-6-oxo-1,6-dihydropyrimidin-2-yl]acetamide]
Second: O=C(Cc1nc(N2CCOCC2)cc(=O)[nH]1)Nc1cccc(C(F)(F)F)c1O [Example 153, N-[2-hydroxy-3-(trifluoromethyl)phenyl]-2-[4-(morpholin-4-yl)-6-oxo-1,6-dihydropyrimidin-2-yl]acetamide]
The IC50 of the first is 1.5-fold higher: 75 nM for the first, 49 nM for the second.

First: COc1cccc2c1CCN2C(=O)Cc1nc(N2CCOCC2)cc(=O)[nH]1 [Example 141, 2-[2-(4-Methoxy-2,3-dihydroindol-1-yl)-2-oxoethyl]-6-morpholin-4-yl-3H-pyrimidin-4-one]
Second: O=C(Cc1nc(N2CCOCC2)cc(=O)[nH]1)N1CCc2c(Cl)cccc21 [Example 89, 2-[2-(4-chloro-2,3-dihydro-1 H-indol-1-yl)-2-oxoethyl]-6-(morpholin-4-yl)pyrimidin-4(3 H)-one]
The IC50 of the first is 20-fold higher: 60 nM for the first, 3 nM for the second. The second is the more potent here.

First: O=C(Cc1nc(N2CCOCC2)cc(=O)[nH]1)Nc1cccc2[nH]cnc12 [Example 139, N-(1H-benzimidazol-4-yl)-2-[4-(morpholin-4-yl)-6-oxo-1,6-dihydropyrimidin-2-yl]acetamide]
Second: O=C(Cc1nc(N2CCOCC2)cc(=O)[nH]1)Nc1cccc2occc12 [Example 84, N-(1-benzofur-4-yl)-2-[4-(morpholin-4-yl)-6-oxo-1,6-dihydropyrimidin-2-yl]acetamide]
The IC50 of the first is 180-fold higher: 3000 nM for the first, 17 nM for the second. The second is the more potent here.

`O=C(Cc1nc(N2CCOCC2)cc(=O)[nH]1)Nc1ccccc1OCCN1CCCC1` [Example 112, 2-[4-(morpholin-4-yl)-6-oxo-1,6-dihydropyrimidin-2-yl]l-N-{2-[2-(pyrrolidin-1-yl)ethoxy]phenyl}acetamide] and `O=C(Cc1nc(N2CCOCC2)cc(=O)[nH]1)Nc1cccc([N+](=O)[O-])c1O` [Example 151, N-(2-hydroxy-3-nitrophenyl)-2-[4-(morpholin-4-yl)-6-oxo-1,6-dihydropyrimidin-2-yl]acetamide] are within 1.5-fold of each other in IC50: 23 nM for the first, 29 nM for the second.

Going from `Cn1c(CC(=O)Nc2ccccc2)nc(N2CCOCC2)cc1=O` [Example 85, 2-[1-methyl-4-(morpholin-4-yl)-6-oxo-1,6-dihydropyrimidin-2-yl]-N-phenylacetamide] to `Cn1c(CC(=O)Nc2ccc(F)c(I)c2)nc(N2CCOCC2)cc1=O` [Example 93, N-(3-iodo-4-fluorophenyl)-2-[1-methyl-4-(morpholin-4-yl)-6-oxo-1,6-dihydropyrimidin-2-yl]acetamide], the IC50 falls from 340 nM to 63 nM (5.4-fold).

Going from `COC(=O)c1cccc(NC(=O)Cc2nc(N3CCOCC3)cc(=O)[nH]2)c1O` [Example 140, methyl 2-hydroxy-3-(([4-(morpholin-4-yl)-6-oxo-1,6-dihydropyrimidin-2-yl]acetyl)amino)benzoate] to `O=C(Cc1nc(N2CCOCC2)cc(=O)[nH]1)Nc1ccc(F)c(I)c1` [Example 74, N-(4-fluoro-3-iodophenyl)-2-[4-(morpholin-4-yl)-6-oxo-1,6-dihydropyrimidin-2-yl]acetamide], the IC50 falls from 302 nM to 10 nM (30-fold).

First: Cn1c(CC(=O)Nc2cc(F)c(F)c(F)c2)nc(N2CCOCC2)cc1=O [Example 98, 2-(1-methyl-4-morpholin-4-yl-6-oxo-1,6-dihydropyrimidin-2-yl)-N-(3,4,5-trifluorophenyl)acetamide]
Second: Cn1c(CC(=O)N2CCc3c2ccc(F)c3F)nc(N2CCOCC2)cc1=O [Example 128, 2-[2-(4,5-difluoro-2,3-dihydro-1H-indol-1-yl)-2-oxoethyl]-3-methyl-6-(morpholin-4-yl)pyrimidin-4(3H)-one]
The IC50 of the first is 3.2-fold higher: 219 nM for the first, 69 nM for the second. The second is the more potent here.

Going from `O=C(Cc1nc(N2CCOCC2)cc(=O)[nH]1)Nc1cccnc1` [Example 30, 2-[4-(morpholin-4-yl)-6-oxo-1,6-dihydropyrimidin-2-yl]-N-(pyridin-3-yl)acetamide] to `O=C(Cc1nc(N2CCOCC2)cc(=O)[nH]1)Nc1ccsc1` [Example 7, 2-[4-(morpholin-4-yl)-6-oxo-1,6-dihydropyrimidin-2-yl]-N-(thiophen-3-yl)acetamide], the IC50 falls from 1030 nM to 23 nM (45-fold).

Going from `N#Cc1cc(NC(=O)Cc2nc(N3CCOCC3)cc(=O)[nH]2)ccc1F` [Example 24, N-(3-cyano-4-fluorophenyl)-2-[4-(morpholin-4-yl)-6-oxo-1,6-dihydropyrimidin-2-yl]acetamide] to `O=C(Cc1nc(N2CCOCC2)cc(=O)[nH]1)N1CCc2c(Br)cccc21` [Example 135, 2-[2-(4-Bromo-2,3-dihydroindol-1-yl)-2-oxoethyl]-6-morpholin-4-yl-3H-pyrimidin-4-one], the IC50 falls from 247 nM to 1 nM (250-fold).

First: CC1CN(C(=O)Cc2nc(N3CCOCC3)cc(=O)[nH]2)c2ccccc21 (centres unmarked) [Example 101, 2-[2-(3-methyl-2,3-dihydro-1H-indol-1-yl)-2-oxoethyl]-6-(morpholin-4-yl)pyrimidin-4(3H)-one]
Second: C[C@H]1CN(C(=O)Cc2nc(N3CCOCC3)cc(=O)[nH]2)c2ccccc21 [Example 126, 2-{2-[(3R)-3-methyl-2,3-di hydro-1H-indol-1-yl]-2-oxoethyl}-6-(morpholin-4-yl)pyrimidin-4(3H)-one]
The IC50 of the first is 4.4-fold lower: 13 nM for the first, 57 nM for the second.

First: O=C(Cc1nc(N2CCOCC2)cc(=O)[nH]1)N1CCOc2c(Cl)cccc21 [Example 149, 2-[2-(8-chloro-2,3-dihydro-4H-1,4-benzoxazin-4-yl)-2-oxoethyl]-6-(morpholin-4-yl)pyrimidin-4(3H)-one]
Second: O=C(Cc1nc(N2CCOCC2)cc(=O)[nH]1)N1CCc2c(O)cccc21 [Example 91, 2-[2-(4-hydroxy-2,3-dihydro-1H-indol-1-yl)-2-oxoethyl]-6-(morpholin-4-yl)pyrimidin-4(3H)-one]
The IC50 of the first is 1.7-fold lower: 43 nM for the first, 71 nM for the second.
